According to paper PMC6270994, “The Hydractinia echinata Test-System. III: Structure-Toxicity Relationship Study of Some Azo-, Azo-Anilide, and Diazonium Salt Derivatives” (Molecules, 2014):

Each compound was assayed on Hydractinia echinata (assay: Hydractinia echinata test system (HeTS): reduction of Cs+-induced metamorphosis of larvae). Conditions: Hydractinia echinata; MRC50 in mol/L = concentration for 50% decrease of metamorphosis vs control; larvae exposed 3 h with Cs+, read after 24 h; read-out: M: experimental Mlog(1/MRC50) (converted).
Assay type: in vivo
Method: The average (C) concentrations of these values were calculated too. The MRC50 value calculations (Chicu et al.) result from the graphical representation of the metamorphosis variation, M (%), (Y axis) function of the xenobiotic’s concentration (mol/L) (X axis), where the metamorphosis decreases with the rise of the xenobiotic’s concentration. Thus, the MRC50 value represents the xenobiotic’s concentration (mol/L) necessary for a 50% decrease of metamorphosis, with respect to control.
For each concentration of substance experiments were performed in triplicate and were repeated at least twice.
Colonies of H. echinata (Biologische Anstalt, Helgoland, Germany) were used to obtain eggs and larvae. The culture medium was artificial seawater (980 mosmol, pH 8.2, 18 °C). In laboratory an artificial metamorphosis can be synchronically started by the introduction of Cs^+ ions or by using seawater without Mg^2+ ions; it then lasts only 24 h. Under the action of external stimulus of Cs^+ ions or Cs^+ ions together with the tested compounds, one part of larvae further lives as such and another one is metamorphosized to the polyp form. The evaluation of the influence of the tested substance is very clear this way, the proposed method being based on this aspect.
H. echinata larvae were exposed to seawater containing Cs^+ and simultaneously one of the test substances for 3 h. The percentage of animals that underwent metamorphosis (development into polyps) was determined after 24 h. […] We chose a concentration of inducers which caused about […] to three quarters of the larvae to metamorphose in order to have conditions which are highly sensitive against an inhibitory influence. […] This concentration was termed MRC50 (for Metamorphosis Reduction Concentration) and is similar to the effective EC50 concentration that gives half maximal effective response.

Q: Nc1c(/N=N/c2ccc(-c3ccc(/N=N/c4cc(S(=O)(=O)O)c5ccccc5c4N)cc3)cc2)cc(S(=O)(=O)O)c2ccccc12 [Compound 82, Congo Red] was tested. Which EC50 did it give?
A: 32.4 µM

Q: With Cc1cc(-c2ccc(/N=N/c3ccc4c(S(=O)(=O)O)cc(S(=O)(=O)O)c(N)c4c3O)c(C)c2)ccc1/N=N/c1ccc2c(S(=O)(=O)O)cc(S(=O)(=O)O)c(N)c2c1O [Compound 89, Direct Blue 53 (Evans Blue)] as the compound, how does the EC50 read?
A: 7.41 µM

Q: Which EC50 does the source give for Cc1cc(-c2ccc(/N=N/c3c(S(=O)(=O)O)cc4cc(S(=O)(=O)O)cc(N)c4c3O)c(C)c2)ccc1/N=N/c1c(S(=O)(=O)O)cc2cc(S(=O)(=O)O)cc(N)c2c1O [Compound 90, Trypanblue (Direct Blue 14)] here?
A: 81.3 µM

Q: How did the EC50 turn out when COc1cc(-c2ccc(-n3nc(-c4ccccc4)n[n+]3-c3ccccc3)c(OC)c2)ccc1-n1nc(-c2ccccc2)n[n+]1-c1ccccc1 [Compound 95, Tetrazolium Blue Chloride] was run?
A: 91.2 µM

Q: O=S(=O)(O)c1cc(/N=N/c2ccc(O)cc2O)ccc1/C=C/c1ccc(/N=N/c2ccc(O)cc2O)cc1S(=O)(=O)O [Compound 97, 5-[(E)-2-(2,4-Dihydroxyphenyl)-diazen-1-yl]-2-[(E)-2-{4-[(E)-2-(2,4-dihydroxyphenyl)-diazen-1-yl]-2-sulfophenyl}ethenyl]-benzene-1-sulfonic acid] was tested. Which EC50 did it give?
A: 186 µM

Q: For O=C(O)c1cc(N=Nc2ccc(C=Cc3ccc(N=Nc4ccc(O)cc4C(=O)O)cc3S(=O)(=O)O)c(S(=O)(=O)O)c2)ccc1O [Compound 98, 2-{2-[4-(2-{4-[2-(3-Carboxy-4-hydroxy-phenyl)diazen-1-yl]-2-sulfophenyl}ethenyl)-3-sulfophenyl]diazen-1-yl}-5-hydroxybenzoic acid], which EC50 is on record?
A: 407 µM

Q: For O=S(=O)(O)c1cc(N=Nc2c(O)ccc3ccccc23)ccc1C=Cc1ccc(N=Nc2c(O)ccc3ccccc23)cc1S(=O)(=O)O [Compound 100, 5-[2-(2-Hydroxy-naphthalen-1-yl)diazen-1-yl]-2-(2-{4-[2-(2-hydroxynaphthalen-1-yl)diazen-1-yl]-2-sulfophenyl}ethenyl)-benzene-1-sulfonic acid], which EC50 is on record?
A: 28.2 µM

Q: Which EC50 does the source give for O=C(O)c1cc2ccccc2c(N=Nc2ccc(C=Cc3ccc(N=Nc4c(O)c(C(=O)O)cc5ccccc45)cc3S(=O)(=O)O)c(S(=O)(=O)O)c2)c1O [Compound 101, 4-{2-[4-(2-{4-[2-(3-Carboxy-2-hydroxy-naphthalen-1-yl)diazen-1-yl]-2-sulfophenyl}-ethenyl)-3-sulfo-phenyl]diazen-1-yl}-3-hydroxynaphthalene-2-carboxylic acid] here?
A: 135 µM

Q: With Nc1c(N=Nc2ccc(C=Cc3ccc(N=Nc4cc(S(=O)(=O)O)c5ccccc5c4N)cc3S(=O)(=O)O)c(S(=O)(=O)O)c2)cc(S(=O)(=O)O)c2ccccc12 [Compound 102, 4-Amino-3-{2-[4-(2-{4-[2-(1-amino-4-sulfonaphthalen-2-yl)diazen-1-yl]-2-sulfophenyl}ethenyl)-3-sulfophenyl]diazen-1-yl}naphthalene-1-sulfonic acid] as the compound, how does the EC50 read?
A: 182 µM

Q: O=C(Nc1ccc(/N=N/c2ccc(C(=O)O)c(O)c2)cc1)c1ccc(/N=N/c2ccccc2O)cc1 [Compound 104, 2-Hydroxy-4-[(E)-2-(4-{4-[(E)-2-(2-hydroxy-phenyl)diazen-1-yl]-benzamido}phenyl)-diazen-1-yl]benzoic acid] was tested. Which EC50 did it give?
A: 30.2 µM

Q: How did the EC50 turn out when O=C(Nc1ccc(/N=N/c2ccc(O)c(C(=O)O)c2)cc1)c1ccc(/N=N/c2cc(/N=N/c3cc(S(=O)(=O)O)ccc3O)c(O)cc2O)cc1 [Compound 105, 5-[(E)-2-(4-{4-[(E)-2-{2,4-dihydroxy-5-[(E)-2-(2-hydroxy-5-sulfo-phenyl)diazen-1-yl]-phenyl}diazen-1-yl]-benzamido}phenyl)-diazen-1-yl]-2-hydroxybenzoic acid] was run?
A: 229 µM

Q: O=C(Nc1ccc(N=Nc2ccc(O)c(C(=O)O)c2)cc1)c1ccc(N=Nc2ccc(O)c(C(=O)O)c2)cc1 [Compound 106, 5-[2-(4-{4-[2-(3-Carboxy-4-hydroxyphenyl)diazen-1-yl]benzamido}-phenyl)diazen-1-yl]-2-hydroxybenzoic acid] was tested. Which EC50 did it give?
A: 363 µM

Q: How did the EC50 turn out when Nc1ccc2c(O)c(N=Nc3ccc(NC(=O)c4ccc(N=Nc5ccc(O)c(C(=O)O)c5)cc4)cc3)c(S(=O)(=O)O)cc2c1 [Compound 107, 5-{2-[4-({4-[2-(6-Amino-1-hydroxy-3-sulfonaphthalen-2-yl)diazen-1-yl]-phenyl}carbamoyl)-phenyl]diazen-1-yl}-2-hydroxybenzoic acid] was run?
A: 219 µM

Q: How did the EC50 turn out when Nc1ccc2cc(S(=O)(=O)O)c(N=Nc3ccc(NC(=O)c4ccc(N=Nc5ccc(O)c(C(=O)O)c5)cc4)cc3)c(O)c2c1 [Compound 108, 5-{2-[4-({4-[2-(7-Amino-1-hydroxy-3-sulfonaphthalen-2-yl)diazen-1-yl]-phenyl}carbamoyl)-phenyl]diazen-1-yl}-2-hydroxybenzoic acid] was run?
A: 214 µM

Q: Which EC50 does the source give for Nc1c(N=Nc2ccc(NC(=O)c3ccc(N=Nc4cc(S(=O)(=O)O)c5ccccc5c4N)cc3)cc2)cc(S(=O)(=O)O)c2ccccc12 [Compound 109, 4-Amino-3-[2-(4-{4-[2-(1-amino-4-sulfonaphthalen-2-yl)-diazen-1-yl]-benzamido}phenyl)-diazen-1-yl]-naphthalene-1-sulfonic acid] here?
A: 166 µM

Q: Which EC50 does the source give for O=C(Nc1ccc(N=Nc2c(O)c(S(=O)(=O)O)cc3cc(S(=O)(=O)O)ccc23)cc1)c1ccc(N=Nc2c(O)c(S(=O)(=O)O)cc3cc(S(=O)(=O)O)ccc23)cc1 [Compound 110, 3-Hydroxy-4-[2-(4-{4-[2-(2-hydroxy-3,6-disulfonaphthalen-1-yl)diazen-1-yl]-benzamido}phenyl)-diazen-1-yl]-naphthalene-2,7-disulfonic acid] here?
A: 195 µM

Q: For Nc1ccc2cc(S(=O)(=O)O)c(N=Nc3ccc(NC(=O)c4ccc(N=Nc5c(S(=O)(=O)O)cc6cc(S(=O)(=O)O)cc(N)c6c5O)cc4)cc3)c(O)c2c1 [Compound 111, 5-Amino-3-{2-[4-({4-[2-(7-amino-1-hydroxy-3-sulfonaphthalen-2-yl)diazen-1-yl]phenyl}-carbamoyl)phenyl]diazen-1-yl}-4-hydroxy-naphthalene-2,7-disulfonic acid], which EC50 is on record?
A: 263 µM

Q: How did the EC50 turn out when Cc1[nH]n(-c2ccc(S(=O)(=O)O)cc2)c(=O)c1N=Nc1ccc(NC(=O)c2ccc(N=Nc3c(C)[nH]n(-c4ccc(S(=O)(=O)O)cc4)c3=O)cc2)cc1 [Compound 112, 4-(3-Methyl-4-{2-[4-(4-{2-[5-methyl-3-oxo-2-(4-sulfophenyl)-2,3-dihydro-1H-pyrazol-4-yl]diazen-1-yl}-benzamido)phenyl]-diazen-1-yl}-5-oxo-2,5-dihydro-1H-pyrazol-1-yl)benzene-1-sulfonic acid] was run?
A: 95.5 µM

Same assay, conditions: Hydractinia echinata; parent dye, Table 2; read-out: F(1+2+...)e experimental toxicity log(1/MRC50) (converted)

Q: For O=S(=O)(O)c1cc(/N=N/c2ccc(O)cc2O)ccc1/C=C/c1ccc(/N=N/c2ccc(O)cc2O)cc1S(=O)(=O)O [Compound 97, 5-[(E)-2-(2,4-Dihydroxyphenyl)-diazen-1-yl]-2-[(E)-2-{4-[(E)-2-(2,4-dihydroxyphenyl)-diazen-1-yl]-2-sulfophenyl}ethenyl]-benzene-1-sulfonic acid], which EC50 is on record?
A: 186 µM

Q: How did the EC50 turn out when O=C(Nc1ccc(/N=N/c2ccc(C(=O)O)c(O)c2)cc1)c1ccc(/N=N/c2ccccc2O)cc1 [Compound 104, 2-Hydroxy-4-[(E)-2-(4-{4-[(E)-2-(2-hydroxy-phenyl)diazen-1-yl]-benzamido}phenyl)-diazen-1-yl]benzoic acid] was run?
A: 30.2 µM

Q: Which EC50 does the source give for O=C(Nc1ccc(N=Nc2ccc(O)c(C(=O)O)c2)cc1)c1ccc(N=Nc2ccc(O)c(C(=O)O)c2)cc1 [Compound 106, 5-[2-(4-{4-[2-(3-Carboxy-4-hydroxyphenyl)diazen-1-yl]benzamido}-phenyl)diazen-1-yl]-2-hydroxybenzoic acid] here?
A: 363 µM

Same assay, conditions: MRC50 in mol/L = concentration for 50% decrease of metamorphosis vs control; larvae exposed 3 h with Cs+, read after 24 h

Q: With Nc1c(N=Nc2ccc([N+](=O)[O-])cc2)c(S(=O)(=O)[O-])cc2cc(S(=O)(=O)[O-])c(N=Nc3ccccc3)c(O)c12.[Na+].[Na+] [Compound 75, Acid Black 1 (Salt)] as the compound, how does the “M: experimental Mlog(1/MRC50)” value read?
A: 4.41

Q: Which “M: experimental Mlog(1/MRC50)” value does the source give for CC1(C)Nc2cccc3c(N=Nc4ccc(N=Nc5ccccc5)c5ccccc45)ccc(c23)N1 [Compound 80, Sudan Black B (Solvent Black 3)] here?
A: 4.20

Q: For Nc1ccc(N=Nc2ccc(-c3ccc(N=Nc4c(S(=O)(=O)[O-])cc5cc(S(=O)(=O)[O-])c(N=Nc6ccccc6)c(O)c5c4N)cc3)cc2)c(N)c1.[Na+].[Na+] [Compound 83, Direct Black 38], which “M: experimental Mlog(1/MRC50)” value is on record?
A: 4.26

Q: How did the “M: experimental Mlog(1/MRC50)” value turn out when O=S(=O)([O-])c1cc(N=Nc2c(O)ccc3ccccc23)ccc1-c1ccc(N=Nc2c(O)ccc3ccccc23)cc1S(=O)(=O)[O-].[Na+].[Na+] [Compound 87, Acid Red 97] was run?
A: 4.11

Q: Which “M: experimental Mlog(1/MRC50)” value does the source give for COc1cc(-c2ccc(N=Nc3c(S(=O)(=O)[O-])cc4cc(S(=O)(=O)[O-])cc(N)c4c3O)c(OC)c2)ccc1N=Nc1c(S(=O)(=O)[O-])cc2cc(S(=O)(=O)[O-])cc(N)c2c1O.[Na+].[Na+].[Na+].[Na+] [Compound 91, Direct Blue 15 (Aizen Direct Sky Blue 5B)] here?
A: 3.69

Q: Which “M: experimental Mlog(1/MRC50)” value does the source give for COc1cc(-c2ccc(N=Nc3ccc4c(S(=O)(=O)[O-])cc(S(=O)(=O)[O-])c(N)c4c3O)c(OC)c2)ccc1N=Nc1ccc2c(S(=O)(=O)[O-])cc(S(=O)(=O)[O-])c(N)c2c1O.[Na+].[Na+].[Na+].[Na+] [Compound 92, Direct Blue 1] here?
A: 3.79

Q: COc1cc(-c2ccc([N+]#N)c(OC)c2)ccc1[N+]#N [Compound 94, Fast Blue B] was tested. Which “M: experimental Mlog(1/MRC50)” value did it give?
A: 4.30

Q: With O=S(=O)([O-])c1cc(N=Nc2ccc(O)cc2)ccc1/C=C/c1ccc(N=Nc2ccc(O)cc2)cc1S(=O)(=O)[O-].[Na+].[Na+] [Compound 96, Brilliant Yellow] as the compound, how does the “M: experimental Mlog(1/MRC50)” value read?
A: 3.84

Q: For O=S(=O)([O-])c1cc(Nc2nc(Nc3ccccc3)nc(N(CCO)CCO)n2)ccc1/C=C/c1ccc(Nc2nc(Nc3ccccc3)nc(N(CCO)CCO)n2)cc1S(=O)(=O)[O-].[Na+].[Na+] [Compound 103, Fluorescent Brightener 28], which “M: experimental Mlog(1/MRC50)” value is on record?
A: 3.81

Same assay, conditions: parent dye, Table 2

Q: For O=S(=O)([O-])c1cc(N=Nc2ccc(O)cc2)ccc1/C=C/c1ccc(N=Nc2ccc(O)cc2)cc1S(=O)(=O)[O-].[Na+].[Na+] [Compound 96, Brilliant Yellow], which “F(1+2+...)e experimental toxicity log(1/MRC50)” value is on record?
A: 3.84
